{"source": "paper PMC4735555", "about": "“Crystal structure of the N-myristoylated lipopeptide-bound MHC class I complex” (Nature Communications, 2016)", "key": {"[1]": {"tested_on": "2N5.1 (Mamu-B*098-transfected LLC-MK2 cells as Ag-presenting cells)", "assay": "Ag presentation by LLC-MK2 cells transfected with rhesus MHC class I (Mamu) cDNA to 2N5.1", "type": "cell-based, rhesus macaque", "conditions": "C14nef5 presented by LLC-MK2 expressing Mamu-B*098; in triplicate, mean with s.e.m. (graph)", "experimental": "(§1) Figure 1 Identification of Mamu-B*098 as a lipopeptide Ag-presenting molecule. (a) LLC-MK2 cells transfected with each of the rhesus MHC class I genes were tested for their ability to present C14nef5 to 2N5.1. […] PBMCs obtained from a donor with the potential to present C14nef5 to 2N5.1 were used as a positive control. Experiments were performed in triplicate. Mean values with s.e.m. are shown. (b) The binding of lipopeptide Ags to recombinant β2m-linked Mamu-B*098 and Mamu-A*02 proteins was monitored by biolayer interferometry. Representative data from three independent experiments are shown. Mamu-A*02, a rhesus MHC class I allele known to bind 9-mer peptides, was used as a negative control. (c) Plate-coated MHC class I molecules were tested for their ability to present lipopeptide Ags to 2N5.1. The Ag-specific T-cell response was assessed by measuring the amount of IFN-γ released into the culture medium. Mean values with s.e.m. are shown. […] The original data (coloured as indicated) are depicted with the curve fit (grey) overlaid. The steady-state affinity plot (inset) is also shown. Three independent experiments were performed and mean equilibrium-dissociation constant (KD) values ±s.d. are shown. (e) Amino acid sequences of Mamu-B*098, HLA-B*27:09, Mamu-B*17:01 and human CD1a are shown. […] Solid and open triangles indicate paired and unpaired cysteine residues, respectively. […]"}, "[2]": {"tested_on": "2N5.1 (LLC-MK2 cells transfected with other rhesus MHC class I genes)", "assay": "Ag presentation by other (non-B*098) Mamu class I LLC-MK2 transfectants to 2N5.1", "type": "cell-based, rhesus macaque", "conditions": "LLC-MK2 transfected with each rhesus MHC class I cDNA clone, other than Mamu-B*098; IFN-γ; C14nef5", "experimental": "as §1"}, "[3]": {"tested_on": "Mamu-A*02", "assay": "Biolayer interferometry binding to β2m-linked Mamu-A*02", "design": "species or system rhesus macaque", "conditions": "Octet RED96; biotinylated β2m-linked Mamu-A*02 (refolded with YY9), negative control; lipopeptide 10 μM, 45 min; pH 7.5, 2% DMSO; 30 °C", "source_text": "Single-chain MHC proteins in which β2m was linked via a Gly-Ser linker (GGGGSGGSGSGGGSS) to the ectodomain of either Mamu-B*098 or Mamu-A*02, followed by a biotinylation sequence peptide (LHHILDAQKMVWNHR), were also expressed in E. coli and were purified in a similar manner to the trimer complex of Mamu-B*098, β2m and C14nef5. The β2m-linked Mamu-B*098 protein was refolded without C14nef5, whereas the β2m-linked Mamu-A*02 protein was refolded in the presence of the YY9 peptide (YTSGPGIRY). These recombinant proteins (3 mg) were biotinylated by being incubated for 12 h at 20 °C with 2 μg of BirA enzyme (Sigma-Aldrich, St Louis, MO) in a biotinylation buffer containing 100 mM Tris-HCl pH 8.0, 5 mM MgCl2, 4.5 mM ATP and 4 mM D-biotin, and were purified by size-exclusion chromatography.\nThe binding of ligands to MHC class I molecules was analysed using the Octet RED96 system equipped with a streptavidin-conjugated biosensor (Pall ForteBio, Menlo Park, CA) according to the manufacturer's instructions. Biotinylated β2m-linked Mamu-B*098 and Mamu-A*02 proteins were immobilized on the sensor tip surface with a signal magnitude of ∼5.0 nm. […] After reference subtraction, binding signals were analysed using the BIAevaluation 3.1 software. […]"}, "[4]": {"tested_on": "2N5.1", "assay": "2N5.1 response to C14nef5 in the presence of rhesus PBMCs and its blocking by mAbs", "type": "cell-based, rhesus macaque", "conditions": "rhesus PBMCs derived from a positive donor", "experimental": "The rhesus macaques (Macaca mulatta) used in this study were treated humanely in accordance with institutional regulations, and the experimental protocols were approved by the Committee for Experimental Use of Non-human Primates at the Institute for Virus Research and at the Primate Research Institute, Kyoto University. Rhesus macaque monocytes were isolated from PBMCs using MACS MicroBeads (Miltenyi Biotec, Bergisch Gladbach, Germany) conjugated with cross-reactive anti-human CD14 Abs. After immunizing BALB/c mice with these monocytes, spleen cells were obtained and fused with SP2/0 myeloma cells using the standard polyethylene glycol method. Culture supernatants of the hybridoma clones were tested at a dilution of 1:1 for their reactivity to rhesus macaque monocytes by flow cytometry and positive clones were subjected to T-cell assays to assess blocking activities."}}, "data": [{"substance": "C14-Gly-Gly-Ala-Ile-Ser [C14nef5, N-myristoylated 5-mer peptide (C14-Gly-Gly-Ala-Ile-Ser; C14nef5) derived from the SIV Nef protein]", "values": [{"measurement": "stimulation of 2N5.1 to produce IFN-γ by Mamu-B*098-transfected LLC-MK2 cells", "setting": "[1]", "value": "stimulated 2N5.1 cells to produce interferon-γ (IFN-γ)"}, {"measurement": "Ag presentation capacity of other Mamu class I transfectants", "setting": "[2]", "value": "None of the cell transfectants exhibited the Ag presentation capacity"}, {"measurement": "physical interaction with immobilized Mamu-A*02 (biolayer interferometry)", "setting": "[3]", "value": "not for the control protein Mamu-A*02"}, {"measurement": "2N5.1 response (IFN-γ production) in the presence of rhesus PBMCs", "setting": "[4]", "value": "responded to C14nef5"}]}]}
